According to patent US20120053208A1 (THE OHIO STATE UNIVERSITY RESEARCH FOUNDATION, priority 2009, published 2012):

Key:
STAT3 phosphorylation = STAT3 phosphorylation by immunoblot in cancer cells with persistently activated STAT3; type: cell-based, human; details: 24 h
Source text: (§1) The cell extract were processed for immunoblotting using specific antibodies. GAPDH was used as loading control.
(§2) The cell extracts were processed for immunoblotting using specific antibodies. GAPDH was used as loading control.
(§3) GAPDH was used as loading control.
as §2

[1] = test system: ERK1/2, PKC-δ, mTOR, p70S6K, and AKT phosphorylation; assay: Phosphorylation of other kinases by immunoblot in breast cancer cells; type: cell-based, human; details: MDA-MB-231 and MDA-MB-468 cells, 24 h
Source text: as §1, §2

[2] = test system: cells with persistent expression of p-STAT3; assay: Apoptosis (cleaved caspase-3 immunoblot) in cancer cells; type: cell-based, human; details: 24 h
Source text: as §1, §2, §3, §2, §2

[3] = test system: normal human pancreatic duct epithelial cells, normal human lung fibroblasts, normal human mammary epithelial cells; assay: Apoptosis (cleaved caspase-3 immunoblot) in normal human cells; details: HPDE, HMEC and normal human lung fibroblasts; 24 h
Source text: as §2

[4] = test system: downstream targets of STAT3; assay: Expression of downstream targets of STAT3 by immunoblot; type: cell-based, human; details: both breast cancer cell lines (MDA-MB-231, MDA-MB-468)
Source text: as §1, §2, §3, §2

[5] = test system: STAT3 DNA binding activity; assay: STAT3 DNA binding activity (STAT3 Transcription Factor Kit); type: cell-based, human; details: MDA-MB-231 cells; 10 μM, 24 h
Experimental: Cells were treated with the compounds or DMSO (control) for 24 h. The cell extract were analyzed for STAT3 binding activity using STAT3 Transcription Factor Kit.
(§4) Cells were treated with FLLL31 (10 μM) or DSMO (control) for 24 h. The cell extracts were analyzed for STAT3 DNA binding activity using STAT3 and STAT1 Transcription Factor Kits.

[6] = test system: STAT1 DNA binding activity; assay: STAT1 DNA binding activity (STAT1 Transcription Factor Kit); type: cell-based, human; details: MDA-MB-231 cells; 10 μM, 24 h
Experimental: as §4

[7] = test system: STAT3 dependent luciferase activity; assay: STAT3-dependent transcriptional luciferase activity (pLucTKS3); type: cell-based, human; details: MDA-MB-231 cells stably transfected with pLucTKS3; 1-10 μmol/L, 24 hours
Experimental: Cells were incubated with the compounds for 24 h and were then harvested for luciferase activity analysis.
Expression of luciferase is thus contingent upon the phosphorylation and activation of STAT3.

[8] = test system: eight cancer cell lines with elevated levels of STAT3 phosphorylation; assay: Anti-proliferative activity in a panel of eight cancer cell lines; type: cell-based, human
JAK2 kinase = JAK2 kinase (Homo sapiens, UniProt O60674); assay: JAK2 kinase assay (HTScan JAK2 kinase assay kit); details: at 10 μM
JAK2 kinase, sequence (O60674 whole entry): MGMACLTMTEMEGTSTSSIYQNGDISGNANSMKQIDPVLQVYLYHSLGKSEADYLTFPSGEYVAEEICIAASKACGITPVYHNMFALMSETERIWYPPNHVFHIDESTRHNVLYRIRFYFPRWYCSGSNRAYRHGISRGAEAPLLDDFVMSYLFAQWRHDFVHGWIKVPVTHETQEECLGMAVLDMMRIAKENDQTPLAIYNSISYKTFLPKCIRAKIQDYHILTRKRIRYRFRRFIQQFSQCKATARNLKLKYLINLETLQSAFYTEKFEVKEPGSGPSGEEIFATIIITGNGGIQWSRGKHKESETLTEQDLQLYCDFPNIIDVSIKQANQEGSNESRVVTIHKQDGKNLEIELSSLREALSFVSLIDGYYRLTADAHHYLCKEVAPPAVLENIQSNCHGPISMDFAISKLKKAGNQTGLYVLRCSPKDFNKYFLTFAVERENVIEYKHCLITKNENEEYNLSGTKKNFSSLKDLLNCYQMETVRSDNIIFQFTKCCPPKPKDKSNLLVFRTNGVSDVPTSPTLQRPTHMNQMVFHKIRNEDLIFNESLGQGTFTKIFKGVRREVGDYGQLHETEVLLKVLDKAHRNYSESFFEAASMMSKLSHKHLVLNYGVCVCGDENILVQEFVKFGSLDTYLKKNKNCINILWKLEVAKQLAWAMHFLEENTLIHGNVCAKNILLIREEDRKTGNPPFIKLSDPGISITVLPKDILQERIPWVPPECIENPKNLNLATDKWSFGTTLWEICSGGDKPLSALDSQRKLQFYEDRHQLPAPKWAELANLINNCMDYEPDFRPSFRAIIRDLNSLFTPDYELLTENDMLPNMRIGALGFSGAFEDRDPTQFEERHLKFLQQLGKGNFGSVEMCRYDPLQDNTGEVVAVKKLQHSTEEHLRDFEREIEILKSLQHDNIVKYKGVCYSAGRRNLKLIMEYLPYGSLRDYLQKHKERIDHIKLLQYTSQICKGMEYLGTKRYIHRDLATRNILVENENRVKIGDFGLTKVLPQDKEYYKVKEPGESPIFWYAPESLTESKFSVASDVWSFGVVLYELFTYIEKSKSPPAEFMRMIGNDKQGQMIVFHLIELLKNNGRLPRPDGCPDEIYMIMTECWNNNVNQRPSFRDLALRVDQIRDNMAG
Experimental: JAK2 kinase assay was performed using a HTScan JAK2 kinase assay kit.

Row | JAK2 inhibition (JAK2 kinase) | Structure (SMILES) | inhibition of STAT3 phosphorylation (STAT3 phosphorylation; MDA-MB-231 breast cancer cells, 2.5 and 5 μM) | inhibition of STAT3 phosphorylation (STAT3 phosphorylation; MDA-MB-468 breast cancer cells, 2.5, 5 and 10 μM) | effects on ERK1/2, PKC-δ, mTOR, p70S6K, and AKT phosphorylation [1] | induction of apoptosis (cleavages of caspase-3) ([2]; MDA-MB-231 and MDA-MB-468 breast cancer cells) | induction of apoptosis (cleaved caspase-3) ([2]; PANC-1, BXPC-3 and SK-BR-3 cells, 5 or 10 μM) | induction of apoptosis in normal human cells [3] | down-regulation of cyclin D1 [4] | inhibition of STAT3 DNA binding activity [5] | potency of STAT3 DNA binding inhibition relative to curcumin [5] | selectivity: STAT3 versus STAT1 DNA binding activity [6] | inhibition of STAT3 dependent luciferase activity [7] | IC50, anti-proliferative activity ([8]; SUM-159, ZR-75-1, BXPC-3, HPAC, PANC-1, SW1990, U373, U266) | anti-proliferative potency relative to WP1066, Stattic, S31-201, SD1029 and AG490 ([8]; panel of eight cancer cell lines) | inhibition of STAT3 phosphorylation (STAT3 phosphorylation; U373 human glioblastoma cells, 5 μM) | induction of apoptosis ([2]; U373 cells, 5 μM)
1 |  | COc1ccc(/C=C/C(=O)C(C)(C)C(=O)/C=C/c2ccc(OC)c(OC)c2)cc1OC [FLLL31] | inhibited STAT3 phosphorylation | inhibited STAT3 phosphorylation | little effects | induction of apoptosis | induce apoptosis | no apoptosis induction | down-regulation of cyclin D1 | statistically significant inhibition | significantly more potent than curcumin | inhibit STAT3 but not STAT1 DNA binding activity | dose-dependent inhibition | submicromolar | more potent than the other inhibitors |  | 
2 | did not show any JAK2 inhibition | COc1cc(C=CC(=O)CC(=O)C=Cc2ccc(O)c(OC)c2)ccc1O [curcumin, 1,7-bis(4-hydroxy-3-methoxyphenyl)-1,6-heptadien-3,5-dione, reference compound] |  |  |  |  |  |  |  | inhibit STAT3 DNA binding activity |  |  |  |  |  |  | 
3 |  | C[C@H](NC(=O)/C(C#N)=C/c1cccc(Br)n1)c1ccccc1 [WP1066, reference compound] |  |  |  |  |  |  |  |  |  |  |  |  |  | inhibit STAT3 phosphorylation | induce apoptosis
